Laboratory results taken from ChEMBL document CHEMBL3885881, “DrugMatrix”.

Species: Rattus norvegicus
Test: DrugMatrix - Regimen: Daily Repeat
Format: toxicity, organism-based, Sprague-Dawley
Design: regimen Daily Repeat, gender Male, age 6-8 weeks
Conditions: in vivo, po, route oral GAVAGE, vehicle 100 % WATER; for ABSOLUTE BASOPHIL / ABSOLUTE EOSINOPHIL / ABSOLUTE LYMPHOCYTE / ABSOLUTE MONOCYTE / ABSOLUTE SEGMENTED NEUTROPHIL / BASOPHIL / EOSINOPHIL / ERYTHROCYTE COUNT / HEMATOCRIT / HEMOGLOBIN / LEUKOCYTE COUNT / LYMPHOCYTE / MEAN CORPUSCULAR HEMOGLOBIN / MEAN CORPUSCULAR HEMOGLOBIN CONCENTRATION / MEAN CORPUSCULAR VOLUME / MONOCYTE / NEUTROPHIL / NUCLEATED RED BLOOD CELLS / PLATELET COUNT: tissue Blood; for ALANINE AMINOTRANSFERASE / ALBUMIN / ALKALINE PHOSPHATASE / ASPARTATE AMINOTRANSFERASE / BLOOD UREA NITROGEN / CARBON DIOXIDE / CHLORIDE / CHOLESTEROL / CREATINE PHOSPHOKINASE / CREATININE / GLUCOSE / LACTATE DEHYDROGENASE / LIPASE / PHOSPHORUS / POTASSIUM / SODIUM / TOTAL BILIRUBIN / TOTAL PROTEIN / URIC ACID: tissue Plasma
[1] = 0 mg/kg, 72 h, dose level Control, time 3 day
[2] = 0 mg/kg, 120 h, dose level Control, time 5 day
[3] = 27 mg/kg, 72 h, dose level Low, time 3 day

Compound: CNNCc1ccc(C(=O)NC(C)C)cc1 [PROCARBAZINE]
- ABSOLUTE BASOPHIL [1]: 0 CELLS/uL
- ABSOLUTE EOSINOPHIL [1]: 0 CELLS/uL
- ABSOLUTE LYMPHOCYTE [1]: 7802.17 CELLS/uL
- ABSOLUTE MONOCYTE [1]: 13.5 CELLS/uL
- ABSOLUTE SEGMENTED NEUTROPHIL [1]: 617.67 CELLS/uL
- BASOPHIL [1]: 0%
- EOSINOPHIL [1]: 0%
- ERYTHROCYTE COUNT [1]: 5.35 x10E6/uL
- HEMATOCRIT [1]: 33.02%
- HEMOGLOBIN [1]: 12.88 G/DL
- LEUKOCYTE COUNT [1]: 8.43 x10E3/uL
- LYMPHOCYTE [1]: 92.67%
- MEAN CORPUSCULAR HEMOGLOBIN [1]: 24.12 pg
- MEAN CORPUSCULAR HEMOGLOBIN CONCENTRATION [1]: 39.03 G/DL
- MEAN CORPUSCULAR VOLUME [1]: 61.8 fL
- MONOCYTE [1]: 0.17%
- NEUTROPHIL [1]: 7.17%
- NUCLEATED RED BLOOD CELLS [1]: 0 /100WBC
- PLATELET COUNT [1]: 1124.83 x10E3/uL
- ALANINE AMINOTRANSFERASE [1]: 54.17 u/L
- ALBUMIN [1]: 4.07 G/DL
- ALKALINE PHOSPHATASE [1]: 383.83 u/L
- ASPARTATE AMINOTRANSFERASE [1]: 82.17 u/L
- BLOOD UREA NITROGEN [1]: 13.67 mg/dL
- CARBON DIOXIDE [1]: 31 mmol/L
- CHLORIDE [1]: 100.83 MEQ/L
- CHOLESTEROL [1]: 65.17 mg/dL
- CREATINE PHOSPHOKINASE [1]: 228.33 u/L
- CREATININE [1]: 0.12 mg/dL
- GLUCOSE [1]: 148 mg/dL
- LACTATE DEHYDROGENASE [1]: 97.83 u/L
- LIPASE [1]: 9.17 u/L
- PHOSPHORUS [1]: 9.75 mg/dL
- POTASSIUM [1]: 5.85 MEQ/L
- SODIUM [1]: 147.02 MEQ/L
- TOTAL BILIRUBIN [1]: 0.18 mg/dL
- TOTAL PROTEIN [1]: 6.1 G/DL
- URIC ACID [1]: 0.5 mg/dL
- ABSOLUTE BASOPHIL [2]: 0 CELLS/uL
- ABSOLUTE EOSINOPHIL [2]: 0 CELLS/uL
- ABSOLUTE LYMPHOCYTE [2]: 10538 CELLS/uL
- ABSOLUTE MONOCYTE [2]: 15.83 CELLS/uL
- ABSOLUTE SEGMENTED NEUTROPHIL [2]: 762.83 CELLS/uL
- BASOPHIL [2]: 0%
- EOSINOPHIL [2]: 0%
- ERYTHROCYTE COUNT [2]: 5.49 x10E6/uL
- HEMATOCRIT [2]: 34.63%
- HEMOGLOBIN [2]: 13.72 G/DL
- LEUKOCYTE COUNT [2]: 11.32 x10E3/uL
- LYMPHOCYTE [2]: 92.67%
- MEAN CORPUSCULAR HEMOGLOBIN [2]: 24.97 pg
- MEAN CORPUSCULAR HEMOGLOBIN CONCENTRATION [2]: 39.57 G/DL
- MEAN CORPUSCULAR VOLUME [2]: 63.05 fL
- MONOCYTE [2]: 0.17%
- NEUTROPHIL [2]: 7.17%
- NUCLEATED RED BLOOD CELLS [2]: 0.17 /100WBC
- PLATELET COUNT [2]: 802 x10E3/uL
- ALANINE AMINOTRANSFERASE [2]: 50.5 u/L
- ALBUMIN [2]: 4.07 G/DL
- ALKALINE PHOSPHATASE [2]: 336.83 u/L
- ASPARTATE AMINOTRANSFERASE [2]: 81 u/L
- BLOOD UREA NITROGEN [2]: 14.17 mg/dL
- CARBON DIOXIDE [2]: 32 mmol/L
- CHLORIDE [2]: 98.33 MEQ/L
- CHOLESTEROL [2]: 69.17 mg/dL
- CREATINE PHOSPHOKINASE [2]: 253.33 u/L
- CREATININE [2]: 0.13 mg/dL
- GLUCOSE [2]: 153.67 mg/dL
- LACTATE DEHYDROGENASE [2]: 157 u/L
- LIPASE [2]: 9 u/L
- PHOSPHORUS [2]: 10.78 mg/dL
- POTASSIUM [2]: 6.11 MEQ/L
- SODIUM [2]: 144.57 MEQ/L
- TOTAL BILIRUBIN [2]: 0.15 mg/dL
- TOTAL PROTEIN [2]: 6.05 G/DL
- URIC ACID [2]: 0.73 mg/dL
- ABSOLUTE BASOPHIL [3]: 0 CELLS/uL
- ABSOLUTE EOSINOPHIL [3]: 0 CELLS/uL
- ABSOLUTE LYMPHOCYTE [3]: 5898 CELLS/uL
- ABSOLUTE MONOCYTE [3]: 47.67 CELLS/uL
- ABSOLUTE SEGMENTED NEUTROPHIL [3]: 121 CELLS/uL
- BASOPHIL [3]: 0%
- EOSINOPHIL [3]: 0%
- ERYTHROCYTE COUNT [3]: 5.61 x10E6/uL
- HEMATOCRIT [3]: 35.4%
- HEMOGLOBIN [3]: 13.53 G/DL
- LEUKOCYTE COUNT [3]: 6.07 x10E3/uL
- LYMPHOCYTE [3]: 97%
- MEAN CORPUSCULAR HEMOGLOBIN [3]: 24.13 pg
- MEAN CORPUSCULAR HEMOGLOBIN CONCENTRATION [3]: 38.2 G/DL
- MEAN CORPUSCULAR VOLUME [3]: 63.1 fL
- MONOCYTE [3]: 1%
- NEUTROPHIL [3]: 2%
- NUCLEATED RED BLOOD CELLS [3]: 0 /100WBC
- PLATELET COUNT [3]: 1005 x10E3/uL
- ALANINE AMINOTRANSFERASE [3]: 73.33 u/L
- ALBUMIN [3]: 4.33 G/DL
- ALKALINE PHOSPHATASE [3]: 429.33 u/L
- ASPARTATE AMINOTRANSFERASE [3]: 103.33 u/L
- BLOOD UREA NITROGEN [3]: 13.67 mg/dL
- CARBON DIOXIDE [3]: 31.67 mmol/L
- CHLORIDE [3]: 97.5 MEQ/L
- CHOLESTEROL [3]: 76.33 mg/dL
- CREATINE PHOSPHOKINASE [3]: 504 u/L
- CREATININE [3]: 0.1 mg/dL
- GLUCOSE [3]: 139.67 mg/dL
- LACTATE DEHYDROGENASE [3]: 137.67 u/L
- LIPASE [3]: 11.67 u/L
- PHOSPHORUS [3]: 9.73 mg/dL
- POTASSIUM [3]: 5.46 MEQ/L
- SODIUM [3]: 144.3 MEQ/L
- TOTAL BILIRUBIN [3]: 0.13 mg/dL
- TOTAL PROTEIN [3]: 6.27 G/DL
- URIC ACID [3]: 0.57 mg/dL
